Where “and” joins values, the source holds several entries; their conditions need not be identical. Identical values can stand only once.
Key:
[1] = Average particle size (ζ-Average) and PDI by dynamic light scattering (Zetasizer Nano ZSP); type: physicochemical
In short: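 Lipid nanoparticles dispersed in PBS(−) were sized by dynamic light scattering, giving the ζ-Average diameter and polydispersity index (PDI).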

[2] = Average particle size and PDI by dynamic light scattering (Zetasizer Nano ZS); type: physicochemical
Experimental: (§1) The average particle size (number-average value) and PDI in PBS(−) and zeta potential in 10 mM HEPES buffer solution (pH 7.4) of lipid nanoparticles were measured using “Zetasizer Nano ZS ZEN3600”, an analyzer utilizing dynamic light scattering (manufactured by Malvern).

[3] = Nucleic acid encapsulation rate by Ribogreen (section II); type: physicochemical; settings: for % mRNA encapsulation: NlucmRNA-loaded LNP, 60:10:40:1; for % pDNA encapsulation: pFluc-loaded LNP
Experimental: The encapsulation rates of siRNA, mRNA, and pDNA of lipid nanoparticles were measured using Ribogreen (manufactured by life technologies).

[4] = Storage stability of FlucmRNA-loaded LNP at −80, 5, 25 and 40° C.; type: physicochemical; settings: for period for which quality remained good, −80° C.: maximum storage period 1 week; for period for which quality remained good, 5° C. / period for which quality remained good, 25° C. / period for which quality remained good, 40° C. (weeks): maximum storage period 5 weeks
In short: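 FlucmRNA-loaded LNPs held at −80, 5, 25 or 40° C; at each time point size, PDI and encapsulation measured. Quality deemed maintained while size stays within ±20 nm of preparation day, PDI ≤0.2 and encapsulation ≥80%; value is the period meeting all three.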

[5] = Zeta potential in 10 mM HEPES buffer (pH 7.4); type: physicochemical
Experimental: as §1

F7 [6] = assay: In vivo F7 knockdown, plasma F7 enzyme activity (BIOPHEN FVII), Balb/c mice; settings: i.v. 0.025 mg siRNA/kg, plasma at 24 hours; for F7 enzyme activity (%): untreated mice as 100%
In short: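 Female Balb/c mice, 5 weeks old, received F7 siRNA lipid nanoparticles i.v. at 0.025 mg siRNA/kg; plasma F7 activity measured chromogenically (BIOPHEN FVII) 24 h later. Values are % of untreated mice, also expressed as a ratio to MC3-containing nanoparticles set at 1.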

F7 [7] = assay: In vivo F7 knockdown, plasma F7 enzyme activity, ICR mice; settings: i.v. 0.003-0.1 mg siRNA/kg, plasma at 24 hours, compared with LNP of CL4H6 or CL15H6 (FIG. 2)
Experimental: Then, each prepared F7siRNA-loaded lipid nanoparticles were administered to ICR mice (4 weeks old, female) and in vivo F7 knockdown activity was examined.
Specifically, each F7siRNA-loaded lipid nanoparticles were intravenously administered to ICR mice at 0.003-0.1 mg siRNA/kg, and plasma F7 enzyme activity at 24 hours later was measured. Relative plasma F7 enzyme activity (%) of mice administered each F7siRNA-loaded lipid nanoparticles was calculated using plasma F7 enzyme activity of untreated mice as 100%. FIG. 2(B) is the results of intravenous administration of each F7siRNA-loaded lipid nanoparticle at 0.1 mg siRNA/kg.

[8] = pKa of lipid nanoparticles by TNS (section II); type: physicochemical; settings: F7siRNA-loaded LNP; compared with LNP of straight-chain CL4H6 or CL15H6 (FIG. 1)
Experimental: The pKa of lipid nanoparticles was measured using p-toluidino-2-naphthalenesulfonic acid (TNS). First, TNS (final concentration: 0.75 μM) and lipid nanoparticles (final concentration: […]) were mixed in buffer solution adjusted to each pH. The fluorescence intensity of the prepared mixture was measured with a microplate reader. The highest and lowest values among the measured values were taken as 100% and 0% charge rates respectively, and the pH indicating 50% charge rate was calculated as pKa.

[9] = siRNA/mRNA encapsulation rate by Ribogreen reagent (section IV); type: physicochemical; settings: for % siRNA encapsulation: F7siRNA-loaded LNP, 50:10:38.5:1.5, N/P ratio 6; for % mRNA encapsulation: FlucmRNA-loaded LNP, 50:10:38.5:1.5
In short: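 LNPs diluted in TE buffer to 8 μg/mL nucleic acid for surface RNA, or to 1.2 μg/mL with 1% Triton X-100 for total RNA. RiboGreen fluorescence (ex 485/em 528 nm) quantified against a Triton-containing standard curve (0-2.5 μg/mL). Encapsulation % = (total − surface)/total × 100.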

liver = assay: In vivo Fluc activity of FlucmRNA-loaded LNP by in vivo imaging, liver; settings: Balb/c mice, FlucmRNA-loaded LNP i.v. 0.1 mg mRNA/kg, 6 hours
In short: (§2)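 Female Balb/c mice, 7 weeks old, received LNP i.v. at 0.1 mg mRNA/kg. At 6 h, luciferin was given via tail vein at 1.5 mg per mouse, and liver and spleen luminescence was imaged as Avg Radiance [p/s/cm2/sr] near 560 nm.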

spleen = assay: In vivo Fluc activity of FlucmRNA-loaded LNP by in vivo imaging, spleen; settings: Balb/c mice, 6 hours; for Fluc Activity in spleen: FlucmRNA-loaded LNP i.v. 0.1 mg mRNA/kg
In short: as §2

[10] = pDNA encapsulation rate by Picogreen reagent; type: physicochemical; settings: pDNA (eGFP)-loaded LNP
Experimental: The encapsulation rate of pDNA of the lipid nanoparticles was measured using Picogreen (registered trademark) reagent (Quant-iT™ dsDNA Assay Kit, broad range, manufactured by Thermofisher Scientific). In encapsulation rate measurement of pDNA, the nucleic acid concentration in solution for measuring nanoparticle surface nucleic acid concentration was set at 1.6 μg/mL, the nucleic acid concentration in solution for measuring total nucleic acid concentration […], and the nucleic acid concentration used for calibration curve 0-0.5 μg/mL, and the same method as the method for measuring encapsulation rate of siRNA and mRNA was carried out except that Picogreen (registered trademark) reagent (Quant-iT™ dsDNA Assay Kit, broad range, manufactured by Thermofisher Scientific) was used as measurement reagent. Encapsulation rate %=(nucleic acid concentration in solution for measuring total nucleic acid concentration (μg/mL)−nucleic acid concentration in solution for measuring nanoparticle surface nucleic acid concentration (μg/mL))/(nucleic acid concentration in solution for measuring total nucleic acid concentration (μg/mL))×100. <Results>

[11] = Stability of pDNA-loaded LNP standing at 40° C.; type: physicochemical
Experimental: Prepared lipid nanoparticles were allowed to stand at 40° C., and after keeping for each period, they were evaluated whether quality was well remained according to the following criteria: • Good (O): particle size is within +/−20 nm of the particle size immediately after preparation, and PDI is 0.2 or less, and encapsulation rate is 80% or more; • No good (X): particle size is greater than +/−20 nm of the particle size immediately after preparation, or encapsulation rate is less than 80%.
The lipid nanoparticles which remain in good quality with standing at 40° C. for one week or more can be evaluated as having excellent stability.

[12] = F7siRNA-loaded LNP, 50:10:38.5:1.5, N/P ratio 6
[13] = FlucmRNA-loaded LNP, lipid:DSPC:cholesterol:DMG-PEG2K 50:10:38.5:1.5
[14] = NlucmRNA-loaded LNP, 60:10:40:1
[15] = NlucmRNA-loaded LNP, lipid:DSPC:cholesterol:PEG-DMG 60:10:40:1
[16] = pFluc-loaded LNP, 50:10:40:1.5, N/P ratio 6
[17] = pFluc-loaded LNP, 50:10:40:1.5, N/P ratio 9
[18] = FlucmRNA-loaded LNP, 50:10:38.5:1.5
[19] = pDNA-loaded LNP after standing at 40° C. 1 M
[20] = pDNA-loaded LNP after standing at 40° C. 1 W

PDI [1, 12] | ζ-Average (nm) [1, 12] | ζ-Average (nm) [1, 13] | PdI [2, 14] | ζ-Average (nm) [2, 15] | ζ-Average (nm) [2, 16] | ζ-Average (nm) [2, 17] | PdI ([2]; pFluc-loaded LNP, N/P ratio 6) | PdI ([2]; pFluc-loaded LNP, N/P ratio 9) | % mRNA encapsulation [3] | % pDNA encapsulation ([3]; N/P ratio 6) | % pDNA encapsulation ([3]; N/P ratio 9) | period for which quality remained good, −80° C. [4] | period for which quality remained good, 5° C. [4] | period for which quality remained good, 25° C. [4] | period for which quality remained good, 40° C. (weeks) [4] | ζ-potential (mV) [5, 14] | ζ-potential (mV) ([5]; pFluc-loaded LNP, N/P ratio 6) | % siRNA encapsulation [9] | % mRNA encapsulation [9] | Compound | other results
0.014 | 92.27 nm | 82.66 nm and 88.07 nm | 0.157 | 127.2 nm | 79.91 nm | 91.3 ± 11.2 nm | 0.08 | 0.19 ± 0.03 | 90% | 97.1% | 94.8 ± 3.3% | 1 week | 5 weeks | 5 weeks | 5 weeks | −3.72 mV | −5.17 mV | 99.9% | 99.6% and 99.4% | CCCCCCCCC(CCCCCC)C(=O)OCCCCCCC(O)(CCCCCCOC(=O)C(CCCCCC)CCCCCCCC)CCCCN(CCC)CCC (stereo not drawn) [CL4F6, 7-(4-(dipropylamino)butyl)-7-hydroxytridecane-1,13-diyl bis(2-hexyldecanoate)] | ζ-potential (mV) ([5]; pFluc-loaded LNP, N/P ratio 9): −1.7 ± 0.5 mV; F7 enzyme activity (%) (F7 [6]): 6.8%; in vivo F7 knockdown activity, compared (F7 [7]): equivalent in vivo F7 knockdown activity; pKa of lipid nanoparticle, compared [8]: lower pKa
0.006 | 110.00 nm | 101.60 nm | – | – | – | – | – | – | – | – | – | 1 week | 5 weeks | 5 weeks | 1 week weeks | – | – | 100.0% | 99.7% | CCCCCCC(CCCC)C(=O)OCCCCCCC(O)(CCCCCCOC(=O)C(CCCC)CCCCCC)CCCCN(CCC)CCC (stereo not drawn) [CL4F 8-4] | PDI [1, 18]: 0.020; Particle size (nm), immediately after the preparation ([1]; pDNA (eGFP)-loaded LNP, 50:10:38.5:1.5): 104.7 nm; Fluc Activity in liver (liver): 6.09E+07 Avg Radiance [p/s/cm2/sr]; Fluc activity in the spleen, compared with CL4F6 (spleen; 0.1 mg mRNA/kg, versus LNP comprising CL4F6 (Tables 5 and 6)): higher Fluc activity; Fluc Activity in spleen (spleen): 1.41E+07 Avg Radiance [p/s/cm2/sr]; F7 enzyme activity (%) (F7 [6]): 5.6%; encapsulation rate (%), immediately after the preparation [10]: 98.0%; Quality 40° C. 1 M ([11]; pDNA-loaded LNP): ∘; Quality 40° C. 1 W ([11]; pDNA-loaded LNP): ∘; Particle size (nm), 40° C. 1 M [11, 19]: 116.4 nm; encapsulation rate (%), 40° C. 1 M [11, 19]: 98.1%; Particle size (nm), 40° C. 1 W [11, 20]: 109.1 nm; encapsulation rate (%), 40° C. 1 W [11, 20]: 97.8%
0.021 | 97.73 nm | 102.40 nm | 0.201 | 71.65 nm | 86.39 nm | 100.9 ± 10.7 nm | 0.03 | 0.12 ± 0.08 | 91.8% | 94.7% | 91.1 ± 2.1% | – | – | – | – | 0.419 mV | −5.84 mV | 100.7% | 100.24% | CC(CCC(C(=O)OCCCCCCC(O)(CCCCCCOC(=O)C(CCC(C)CC(C)(C)C)C(C)CC(C)(C)C)CCCCOC(=O)C1CCN(C)CC1)C(C)CC(C)(C)C)CC(C)(C)C (stereo not drawn) [CL15G6] | PDI [1, 18]: 0.012; Fluc Activity in liver (liver): 6.52E+06 Avg Radiance [p/s/cm2/sr]; Fluc Activity in spleen (spleen): 2.77E+06 Avg Radiance [p/s/cm2/sr]; ζ-potential (mV) ([5]; pFluc-loaded LNP, N/P ratio 9): −1.9 ± 0.6 mV; F7 enzyme activity (Ratio using MC3 as 1) (F7 [6]; relative plasma F7 activity of MC3 LNP as 1): 2.69; in vivo F7 knockdown activity, compared (F7 [7]): equivalent in vivo F7 knockdown activity; pKa of lipid nanoparticle, compared [8]: lower pKa
